Article PMC7897990, “TriTOX: A novel Trichomonas vaginalis assay platform for high-throughput screening of compound libraries” (International Journal for Parasitology: Drugs and Drug …, 2021)
Where two headings read alike, the source gives them in different places. Positions of bridges follow the written chain, without caps; N, C: chain ends. Non-standard residues stand in square brackets, D forms with d. Residues, ends and D or L forms follow the SMILES beside them. *: point of attachment. d(aThr) = C[C@@H](O)[C@@H](N)C(=O)O; X1 = CCCCCCCCCCCC(O)CC(=O)*; GABA = NCCCC(=O)O

Test system: Trichomonas vaginalis G3 trophozoites
Settings: for T.vaginalis_Absorbance_Rep1: replicate 1, raw absorbance; for T.vaginalis_Absorbance_Rep2: replicate 2, raw absorbance; for T. vaginalis HTS result in words: 384-well, 25 μL, 10,000 cells/mL, 48 h, biological duplicates, hit = >50% inhibition
[1] = HTS, parasite screen at 1 µg/mL, replicate 1
[2] = HTS, parasite screen at 1 µg/mL
[3] = HTS, parasite screen at 1 µg/mL, replicate 2
[4] = HTS replicate 1, parasite screen 1 µg/mL
[5] = HTS replicate 2, parasite screen 1 µg/mL

Compound: CO[C@H]1C[C@H](O[C@H]2[C@H](C)O[C@@H](O[C@@H]3/C(C)=C/C[C@@H]4C[C@@H](C[C@]5(C=C[C@H](C)[C@@H](C6CCCCC6)O5)O4)OC(=O)C4=C[C@H](C)[C@@H](O)[C@H]5OC/C(=C\C=C[C@@H]3C)[C@@]45O)C[C@@H]2OC)O[C@@H](C)[C@@H]1O [Doramectin, delta2-]
- T.vaginalis_%inb_Rep1 [1]: 13.79%
- T.vaginalis_Absorbance_Rep1 [2]: 0.965
- T.vaginalis_%inb_Rep2 [3]: 15.04%
- T.vaginalis_Absorbance_Rep2 [2]: 0.828

Compound: CCCCCCCCCCCC(O)CC(=O)N[C@@H](CC(C)C)C(=O)N[C@H](CCC(=O)O)C(=O)N[C@H]1C(=O)N[C@H](C(C)C)C(=O)N[C@@H](CC(C)C)C(=O)N[C@H](CO)C(=O)N[C@@H](CC(C)C)C(=O)N[C@@H](CC(C)C)C(=O)N[C@H](CO)C(=O)N[C@@H](C(C)C)C(=O)O[C@@H]1C (some centres unmarked) [Orfamide B] (X1-L[dE][d(aThr)][dV]L[dS]LL[dS]V; ester 3-C)
- T.vaginalis_%inb_Rep1 [4]: 16.23%
- T.vaginalis_%inb_Rep2 [5]: 12.19%

Compound: COc1cccc2nc3c(OC)cccc3nc12 [Dimethoxyphenazine, 1,6-]
- T.vaginalis_%inb_Rep1 [1]: 12.87%
- T.vaginalis_Absorbance_Rep1 [2]: 0.948
- T.vaginalis_%inb_Rep2 [3]: 14.10%
- T.vaginalis_Absorbance_Rep2 [2]: 0.815

Compound: CC1(C)CCC[C@]2(C)[C@@H](CO)C(CO)=CC[C@@H]12 [Drimendiol]
- T.vaginalis_%inb_Rep1 [1]: 13.84%
- T.vaginalis_Absorbance_Rep1 [2]: 0.966
- T.vaginalis_%inb_Rep2 [3]: 11.64%
- T.vaginalis_Absorbance_Rep2 [2]: 0.781

Compound: CCCN1C[C@H](C)[C@@H](O)[C@](C)(O)[C@@H](CC)OC(=O)[C@H](C)[C@@H](O[C@H]2C[C@@](C)(OC)[C@@H](O)[C@H](C)O2)[C@H](C)[C@@H](O[C@@H]2O[C@H](C)C[C@H](N(C)C)[C@H]2O)[C@](C)(O)C[C@H]1C [Gamithromycin]
- T.vaginalis_%inb_Rep1 [1]: 5.73%
- T.vaginalis_Absorbance_Rep1 [2]: 0.815
- T.vaginalis_%inb_Rep2 [3]: 7.95%
- T.vaginalis_Absorbance_Rep2 [2]: 0.759

Compound: CC(=O)OC[C@@]1(C)[C@@H]2C[C@H](OC(C)=O)[C@@]3(C)Oc4cc(-c5ccccc5)oc(=O)c4[C@H](O)[C@@H]3[C@@]2(C)CC[C@@H]1OC(C)=O [Phenylpyropene A]
- T.vaginalis_%inb_Rep1 [4]: 13.03%
- T.vaginalis_%inb_Rep2 [5]: 14.11%

Compound: CC1(C)CC[C@]2(C)CC[C@]3(C)C4=CC[C@H]5C(C)(C)[C@@H](O)CC[C@]5(C)[C@H]4CC[C@@]3(C)[C@@H]2C1 [Multiflorenol]
- T.vaginalis_%inb_Rep1 [4]: 10.55%
- T.vaginalis_%inb_Rep2 [5]: 11.42%

Compound: Pyripyropene A
- T.vaginalis_%inb_Rep1 [4]: 11.61%
- T.vaginalis_%inb_Rep2 [5]: 12.83%

Compound: CC[C@H]1OC(=O)[C@H](C)[C@@H](O[C@H]2C[C@@](C)(OC)[C@@H](O)[C@H](C)O2)[C@H](C)[C@@H](O[C@@H]2O[C@H](C)C[C@H](N(C)C)[C@H]2O)[C@](C)(O)C[C@@H](C)C(=O)[C@H](C)[C@@H](O)[C@H]1C [Erythromycin B]
- T.vaginalis_%inb_Rep1 [1]: 4.47%
- T.vaginalis_Absorbance_Rep1 [2]: 0.792
- T.vaginalis_%inb_Rep2 [3]: 1.66%
- T.vaginalis_Absorbance_Rep2 [2]: 0.643

Compound: CN(C)C1C(=O)C(C(=O)NCN2CCN(CCO)CC2)=C(O)C2(O)C(=O)C3=C(O)c4c(O)cccc4C(C)(O)C3CC12 (centres unmarked) [Pipacycline]
- T.vaginalis_%inb_Rep1 [4]: 11.66%
- T.vaginalis_%inb_Rep2 [5]: 12.19%

Compound: COc1cc(CC2C(=O)OCC2Cc2ccc3c(c2)OCO3)ccc1O (centres unmarked) [Pluviatolide]
- T.vaginalis_%inb_Rep1 [4]: 12.12%
- T.vaginalis_%inb_Rep2 [5]: 14.37%

Compound: C/C=C(\C)c1cc(O)c(C)c2c1Oc1cc(O)cc(C)c1C(=O)O2 [Unguinol]
- T.vaginalis_%inb_Rep1 [1]: 8.70%
- T.vaginalis_%inb_Rep2 [3]: 4.39%

Compound: CC(=O)c1c(O)cc(O)cc1O [Monoacetylphloroglucinol]
- T.vaginalis_%inb_Rep1 [4]: 4.36%
- T.vaginalis_%inb_Rep2 [5]: 14.18%

Compound: C=C1CC[C@H]2C(C)(C)CCC[C@]2(C)[C@H]1C[C@@]12C[C@H]3C(=O)N[C@@H](CC(C)C)C(=O)N3[C@@H]1Nc1ccccc12 [Drimentine A]
- T.vaginalis_%inb_Rep1 [1]: 15.46%
- T.vaginalis_Absorbance_Rep1 [2]: 0.996
- T.vaginalis_%inb_Rep2 [3]: 4.92%
- T.vaginalis_Absorbance_Rep2 [2]: 0.688

Compound: CCCCCCC(C)C/C(C)=C\C(/C=C(C)/C=C/C(O)C(C)(C)c1cc(O)c([C@@H]2O[C@H](CO)C[C@H](O)[C@H]2O)c(=O)o1)CO (some centres unmarked) [Fusapyrone]
- T.vaginalis_%inb_Rep1 [1]: 13.39%
- T.vaginalis_Absorbance_Rep1 [2]: 0.966
- T.vaginalis_%inb_Rep2 [3]: 13.21%
- T.vaginalis_Absorbance_Rep2 [2]: 0.841

Compound: CCCCCC(=O)C(CCCC)c1oc(=O)c(CCCC)c(O)c1CCCC (centres unmarked) [Elasnin]
- T.vaginalis_%inb_Rep1 [1]: 13.95%
- T.vaginalis_Absorbance_Rep1 [2]: 0.968
- T.vaginalis_%inb_Rep2 [3]: 11.14%
- T.vaginalis_Absorbance_Rep2 [2]: 0.774

Compound: Elaiophylin
- T.vaginalis_Absorbance_Rep1 [2]: 0.954
- T.vaginalis_Absorbance_Rep2 [2]: 0.689

Compound: COc1ccc(/C=C/C(=O)O)cc1O [BIA-I1729]
- T.vaginalis_%inb_Rep1 (replicate 1, parasite screen at 1 µg/mL): 11.16%
- T.vaginalis_%inb_Rep2 (replicate 2, parasite screen at 1 µg/mL): 13.98%

Compound: CCC/C=C/C=C/C1C[C@@H](O)[C@@H](O)C(=O)[C@H]1C=O (some centres unmarked) [Frequentin]
- T.vaginalis_%inb_Rep1 [1]: 13.62%
- T.vaginalis_Absorbance_Rep1 [2]: 0.962
- T.vaginalis_%inb_Rep2 [3]: 7.74%
- T.vaginalis_Absorbance_Rep2 [2]: 0.727

Compound: CC1=C[C@H]2C(=O)O[C@H]3C[C@@H](C/C=C(\C)C[C@@H](C)/C=C/C=C4\CO[C@H]([C@@H]1O)[C@@]42O)O[C@@]1(CC[C@H](C)[C@@H](C)O1)C3 [Milbemycin A3]
- T.vaginalis_%inb_Rep1 [4]: 11.05%
- T.vaginalis_%inb_Rep2 [5]: 8.85%

Compound: CC1=C[C@H]2C(=O)O[C@H]3C[C@@H](C/C=C(\C)C[C@@H](C)/C=C/C=C4\CO[C@H](/C1=N/O)[C@@]42O)O[C@@]1(CC[C@H](C)[C@@H](C)O1)C3 [Milbemycin A3 oxime]
- T.vaginalis_%inb_Rep1 [4]: 12.78%
- T.vaginalis_%inb_Rep2 [5]: 11.35%

Compound: Cn1c(=O)c(=Cc2ccccc2)[nH]c(=O)c1=Cc1ccccc1 [Piperafizine A]
- T.vaginalis_%inb_Rep1 [4]: 11.87%
- T.vaginalis_%inb_Rep2 [5]: 11.10%

Compound: COc1cc([C@H]2[C@@]3(O)[C@H](O)[C@H]4C[C@]2(O)[C@](O)(C(=O)O4)[C@H]3C(=O)c2ccccc2)oc(=O)c1 [Enterocin]
- T.vaginalis_%inb_Rep1 [1]: 13.08%
- T.vaginalis_Absorbance_Rep1 [2]: 0.96
- T.vaginalis_%inb_Rep2 [3]: 12.38%
- T.vaginalis_Absorbance_Rep2 [2]: 0.828

Compound: COC1=C(OC)C(O)C(C)C(C)C1=O (centres unmarked) [Glioroseinol]
- T.vaginalis_%inb_Rep1 [1]: 11.16%
- T.vaginalis_Absorbance_Rep1 [2]: 0.922
- T.vaginalis_%inb_Rep2 [3]: 1.92%
- T.vaginalis_Absorbance_Rep2 [2]: 0.665

Compound: C=C1CC[C@H]2C(C)(C)CCC[C@]2(C)[C@H]1C[C@@]12C[C@H]3C(=O)N4CCC=C4C(=O)N3[C@@H]1Nc1ccccc12 [Drimentine B]
- T.vaginalis_%inb_Rep1 [1]: 15.40%
- T.vaginalis_Absorbance_Rep1 [2]: 0.995
- T.vaginalis_%inb_Rep2 [3]: 15.26%
- T.vaginalis_Absorbance_Rep2 [2]: 0.831

Compound: COC1=C(OC)C(=O)C(C)=CC1=O [Fumigatin methylether]
- T.vaginalis_%inb_Rep1 [1]: 13.18%
- T.vaginalis_Absorbance_Rep1 [2]: 0.962
- T.vaginalis_%inb_Rep2 [3]: 9.62%
- T.vaginalis_Absorbance_Rep2 [2]: 0.785

Compound: O=C(O)c1c(=O)cccc2ssc12 [tropodithietic acid, reference compound]
- T. vaginalis HTS result in words: partial hits
- T.vaginalis_%inb_Rep1 [1]: 11.01%
- T.vaginalis_%inb_Rep2 [3]: 97.50%

Compound: C/C=C(/C)c1cc(O)c(C)c2c1Oc1c(C)c(O)cc(/C(C)=C\C)c1C(=O)O2 [Folipastatin]
- T.vaginalis_%inb_Rep1 [1]: 12.58%
- T.vaginalis_Absorbance_Rep1 [2]: 0.95
- T.vaginalis_%inb_Rep2 [3]: 14.11%
- T.vaginalis_Absorbance_Rep2 [2]: 0.855

Compound: CCOC(=O)c1c(C)cc(O)cc1O [Ethyl orsellinate]
- T.vaginalis_%inb_Rep1 [1]: 14.45%
- T.vaginalis_Absorbance_Rep1 [2]: 0.987
- T.vaginalis_%inb_Rep2 [3]: 11.67%
- T.vaginalis_Absorbance_Rep2 [2]: 0.817

Compound: C=C(NC(=O)C(=C)NC(=O)c1ccc2c(n1)-c1coc(n1)C(=C)NC(=O)C(=C)NC(=O)c1nc(oc1C)C(=C)NC(=O)C(C(C)(C)O)NC(=O)C(=C)NC(=O)c1coc(n1)/C(=C/C)NC(=O)[C@H]([C@@H](C)O)NC(=O)c1csc-2n1)C(N)=O (some centres unmarked) [Geninthiocin]
- T.vaginalis_%inb_Rep1 [1]: 14.25%
- T.vaginalis_Absorbance_Rep1 [2]: 0.983
- T.vaginalis_%inb_Rep2 [3]: 12.51%
- T.vaginalis_Absorbance_Rep2 [2]: 0.83

Compound: CC[C@]1(C)C[C@@H](OC(=O)CO)[C@]2(C)[C@H](C)CC[C@]3(CCC(=O)[C@H]32)[C@@H](C)[C@@H]1O [Dihydropleuromutilin]
- T.vaginalis_%inb_Rep1 [1]: 14.27%
- T.vaginalis_Absorbance_Rep1 [2]: 0.974
- T.vaginalis_%inb_Rep2 [3]: 13.23%
- T.vaginalis_Absorbance_Rep2 [2]: 0.803

Compound: CC(=O)Nc1c2sscc-2n(C)c1=O [thiolutin, reference compound]
- T. vaginalis HTS result in words: supported the anti-trichomonal activity

Compound: C[C@@H]1C=C2C(=O)O[C@@H]3CC[C@H](C1)[C@]23O [Galiellalactone]
- T.vaginalis_%inb_Rep1 [1]: 19.07%
- T.vaginalis_Absorbance_Rep1 [2]: 1.078
- T.vaginalis_%inb_Rep2 [3]: 5.71%
- T.vaginalis_Absorbance_Rep2 [2]: 0.724

Compound: COC1=C(OC)C(=O)C(C)C(C)C1=O (centres unmarked) [Gliorosein]
- T.vaginalis_%inb_Rep1 [1]: 13.24%
- T.vaginalis_Absorbance_Rep1 [2]: 0.963
- T.vaginalis_%inb_Rep2 [3]: 15.33%
- T.vaginalis_Absorbance_Rep2 [2]: 0.874

Compound: CC(C)C[C@@H]1NC(=O)[C@@H](C(C)C)NC(=O)[C@@H](C)NC(=O)CCCNC(=O)[C@@H](Cc2c[nH]c3ccccc23)NC(=O)[C@@H](C)NC(=O)[C@@H](C(C)C)NC1=O [Unguisin B] (cyclo([GABA][dA][dV]L[dV][dA][dW]))
- T.vaginalis_%inb_Rep1 [1]: 10.17%
- T.vaginalis_%inb_Rep2 [3]: 14.69%

Compound: CCCC[C@H](O)[C@@H]1CC(OC)=CC(=O)O1 [Pestalotin]
- T.vaginalis_%inb_Rep1 [4]: 11.05%
- T.vaginalis_%inb_Rep2 [5]: 11.16%

Compound: Cc1ncc(-c2c[nH]c3ccccc23)o1 [Pimprinine]
- T.vaginalis_%inb_Rep1 [4]: 11.61%
- T.vaginalis_%inb_Rep2 [5]: 11.80%

Compound: C=C[C@]1(C)C[C@@H](O)[C@]2(C)[C@H](C)CC[C@]3(CCC(=O)[C@H]32)[C@@H](C)[C@@H]1O [Mutilin]
- T.vaginalis_%inb_Rep1 [4]: 12.02%
- T.vaginalis_%inb_Rep2 [5]: 13.21%

Compound: CN(C)[C@@H]1C(O)=C(C(N)=O)C(=O)[C@@]2(O)C(O)=C3C(=O)c4c(O)cccc4[C@@](C)(O)[C@H]3C[C@@H]12 [BIA-T1334]
- T.vaginalis_%inb_Rep1 (parasite screen at 1 µg/mL, replicate 1): 9.28%
- T.vaginalis_%inb_Rep2 (parasite screen at 1 µg/mL, replicate 2): 5.48%
